In patent US11730742B2, “Pharmaceutical use of thiophene [3,2-d] pyrimidine-4-ketone compound” (SHANGHAI INSTITUTE OF MATERIA MEDICA, CHINESE ACADEMY OF …, priority 2018, dated 2023):
Entries after “also recorded” stand apart in the source; their conditions may differ.

How the values were obtained:
[1] = system: NAFLD model of ob/ob mice induced by high-fat diet; assay: NAFLD model of ob/ob mice induced by high-fat diet (Example 5); assay type: in vivo; conditions: 8 weeks
Description: In this experiment, the NAFLD model of ob/ob mice induced by high-fat diet was used to investigate the treatment effect of long-term oral administration of compound DC291407 on NAFLD.
Animal experiment: ob/ob obese mice were divided into 3 groups according to random blood glucose, random body weight, fasting blood glucose, and fasting body weight at the 8th week of age, with 9 mice in each group. There were the model control group (vehicle) and the DC291407 group (20 mg/kg), the positive compound Alogliptin group (20 mg/kg), respectively and mice were administered by oral gavage, twice a day. A group of 6 normal mice in the same cage was set up as a normal control group (WT). Except for the WT group, they were fed with normal feed, and the rest groups were fed with high-fat feed. The administration was continued for 8 weeks. During the administration, the animal's food intake and body weight were monitored. After the last administration, the animals were fasted for 6 hours and allowed to drink water freely. Then the body weight was measured, the blood was collected from the retro-ocular venous plexus, and liver was dissected. Part of the liver was placed in 4% paraformaldehyde, and the rest was stored in a refrigerator at −80° C. This experiment reflected whether the compound had the treating effect on NAFLD by detecting the levels of liver function indexes ALT and AST in the serum, the contents of TC and TG in the liver, the NAS score of liver pathology (HE staining) and the like.

[2] = system: CCl4 induced liver fibrosis model mice; assay: CCl4 induced liver fibrosis model mice, long-term oral administration (Example 4); assay type: in vivo; conditions: for serum ALT level / serum AST level: 20 and 60 mg/kg oral gavage twice a day
Description: In this experiment, CCl4 induced liver fibrosis model mice were used to investigate the effect of long-term oral administration of compound DC291407 on liver fibrosis in the model mice.
Animal experiment: Male C57BL/6j mice were injected intraperitoneally with 2 mL/kg, 10% CCl4 (dissolved in olive oil) three times a week to induce liver fibrosis model. Two weeks after modeling, the blood was taken from the retro-ocular venous plexus of the mice, and serum ALT and AST indexes were detected. According to ALT, AST, body weight and other indexes, the mice were randomly divided into 5 groups, each with 10 mice. There were the model control group (vehicle), DC291407 low-dose group (20 mg/kg), DC291407 high-dose group (60 mg/kg), positive compound OCA low-dose group (20 mg/kg), OCA high-dose group (40 mg/kg), respectively, and mice were administered by oral gavage. DC291407 was administered twice a day, and the other groups were administered once a day. During the administration period, the animals' food intake and body weight were monitored. After 3 weeks of administration, the blood was taken from the retro-ocular venous plexus of the mice, and serum ALT and AST indexes were detected. After 6 weeks of administration, the blood was taken from the retro-ocular venous plexus of the mice and then the mice were killed by dislocation. The liver was taken and weighed, part of the liver was fixed with 4% paraformaldehyde, and part of the liver was frozen at −80° C. During the whole experiment, another 10 mice in the same cage were injected intraperitoneally with the same dose of olive oil as a normal control group (WT). This experiment reflected whether the compound had the effect of relieving liver fibrosis by detecting the levels of liver function indexes ALT and AST in serum, the expression of α-SMA and Col1α1 gene levels in the liver, the content of hydroxyproline (a characteristic amino acid of collagen) in the liver, and liver pathological changes (Sirius scarlet staining) and the like.

[3] = system: CCl4-induced liver fibrosis model mice; assay: CCl4-induced liver fibrosis model mice, multiple doses, comparison with sitagliptin (Example 6); assay type: in vivo; conditions: oral gavage twice a day, 6 weeks
Description: In this experiment, CCl4-induced liver fibrosis model mice were used to investigate the effect of long-term oral administration of compound DC291407 under multiple doses on liver fibrosis in the model mice, and comparison was conducted with the same dose of sitagliptin.
Animal experiment: Male C57BL/6j mice were injected intraperitoneally with 2 mL/kg, 10% CCl4 (dissolved in olive oil) three times a week to induce liver fibrosis model. Two weeks after modeling, the blood was taken from the retro-ocular venous plexus of the mice, and serum ALT and AST indexes were detected. According to ALT, AST, body weight and other indexes, the mice were randomly divided into 8 groups with 10 mice in each group. There were the models control group (vehicle), DC291407 low-dose group (6 mg/kg), DC291407 middle-dose group (20 mg/kg), DC291407 high-dose group (60 mg/kg), sitagliptin low-dose group (6 mg/kg), Sitagliptin middle-dose group (20 mg/kg), sitagliptin high-dose group (60 mg/kg) and system positive compound OCA group (20 mg/kg). The mice were administered by oral gavage. The OCA group was administered once a day, and the other groups were administered twice a day. During the administration period, the animals' food intake and body weight were monitored. After 3 weeks of administration, the blood was taken from the retro-ocular venous plexus of the mice, and serum ALT and AST indexes were detected. After 6 weeks of administration, the blood was taken from the retro-ocular venous plexus of the mice and then the mice were killed by dislocation. The liver was taken and weighed, part of the liver was fixed with 4% paraformaldehyde, and part of the liver was frozen at −80° C. During the whole experiment, another 10 mice in the same cage were injected intraperitoneally with the same dose of olive oil as a normal control group (WT). This experiment reflected whether the compound had the effect of relieving liver fibrosis by detecting the levels of liver function indexes ALT and AST in serum, the content of hydroxyproline (a characteristic amino acid of collagen) in the liver, and liver pathological changes (Sirius scarlet staining) and the like.

[4] = system: Human hepatic stellate cell line LX-2; assay: Inhibition of TGF-β-induced hepatic stellate cell activation (α-SMA, fibronectin by Western Blot); assay type: cell-based; conditions: LX-2, 10 ng/mL TGF-β plus compound for 24 hours; for inhibition of the activation of hepatic stellate cells HSC: α-SMA and fibronectin by Western Blot
Source text: Human hepatic stellate cell line LX-2 was used in cell function experiments. […] By comparing the expression levels of extracellular matrix in the TGF-β group and the cell group in which TGF-β and the compound to be tested were both added at the same time, the efficacy of the compound in alleviating liver fibrosis through hepatic stellate cells was characterized.
The cell experiment procedure was as follows. The human hepatic stellate cell line LX-2 was selected and inoculated into the treated 24-well plate at 7.5×10^4/well. After the cells were adhered overnight and they were subjected to starvation treatment for 12 hours, the cells were treated with 10 ng/mL TGF-β and the corresponding test compound for 24 hours and then protein samples were collected. The expression of extracellular matrix represented by α-smooth muscle myofilament (α-SMA) and fibronectin was detected by Western Blot.

[5] = 20 mg/kg oral gavage twice a day
[6] = after 3 weeks of administration
[7] = after 6 weeks of administration

## COC(=O)c1cc2nc(N3CCC[C@@H](N)C3)n(Cc3ccccc3C#N)c(=O)c2s1 [DC291407, (R)-methyl-2-(3-aminopiperidin-1-yl)-3-(2-cyanobenzyl)-4-carbonyl-3,4-dihydrothieno[3,2-d]pyrimidine-6 carboxylic acid]
[1]; 20 mg/kg each, twice a day
  effect on serum ALT, AST and liver TG compared with alogliptin: equivalent to that of alogliptin
  effect on steatosis compared with alogliptin: better than that of alogliptin
  overall improvement effect on NAS score compared with alogliptin: equivalent to that of alogliptin
[1]; [5]
  content of TG in liver tissue: significantly reduce
  level of ALT in serum: significantly reduce
  level of AST in serum: significantly reduce
  lobular inflammation (NAS score, HE stained liver sections): a certain alleviating effect
  steatosis (NAS score, HE stained liver sections): improve steatosis
[2]; [6]
  serum ALT level: no decrease
  serum AST level: no decrease
[2]; [7]
  collagen content in the liver (Sirius scarlet stained pathological sections, quantitative analysis): reduce the collagen content in the liver without statistical difference
  content of hydroxyproline in liver tissues: reduced
  expression of Col1α1 mRNA in liver tissues: significantly down-regulated
  expression of α-SMA mRNA in liver tissues: significantly down-regulated
  serum ALT level: significantly reduced
  serum AST level: significantly reduced
[3]; high-dose group 60 mg/kg
  ALT level in serum: significantly reduce
  collagen content in the liver (Sirius scarlet stained sections, quantitative analysis): reduce the collagen content in the liver without dose dependence
[3]; low-dose group 6 mg/kg
  ALT level in serum: significantly reduce
  AST level in serum: significantly reduce
  collagen content in the liver (Sirius scarlet stained sections, quantitative analysis): reduce the collagen content in the liver without dose dependence
  content of hydroxyproline in liver tissues: reduced the content of hydroxyproline in liver tissues without statistics significance
[3]; middle-dose group 20 mg/kg
  ALT level in serum: significantly reduce
  AST level in serum: significantly reduce
  collagen content in the liver (Sirius scarlet stained sections, quantitative analysis): reduce the collagen content in the liver without dose dependence
[4]
  inhibitory activity on HSC activation compared with positive control Alogliptin: better than that of the positive control Alogliptin
  inhibition of the activation of hepatic stellate cells HSC: concentration-dependently inhibited; also recorded: had an inhibitory effect

## N#Cc1ccccc1Cn1c(N2CCC[C@@H](N)C2)nc2cc(C(=O)O)sc2c1=O [DC291410, (R)-2-(3-aminopiperidin-1-yl)-3-(2-cyanobenzyl)-4-carbonyl-3,4-dihydrothieno[3,2-d]pyrimidine-6 carboxylic acid]
[4]
  inhibitory activity on HSC activation compared with positive control Alogliptin: better than that of the positive control Alogliptin
  inhibition of the activation of hepatic stellate cells HSC: concentration-dependently inhibited

## N[C@@H](CC(=O)N1CCn2c(nnc2C(F)(F)F)C1)Cc1cc(F)c(F)cc1F [sitagliptin, reference compound]
[3]; high-dose group 60 mg/kg
  ALT level in serum: significantly reduced
  AST level in serum: significantly reduced
[3]; low-dose group 6 mg/kg
  ALT level in serum: no effect
  AST level in serum: no effect
  collagen content in the liver (Sirius scarlet stained sections, quantitative analysis): significantly reduce the collagen content in the liver
[3]; middle-dose group 20 mg/kg
  AST level in serum: significantly reduced
